Converted amounts (≈) assume the structure as drawn. “Also recorded” adds a separate entry of the source. Read-outs that look alike come from different tables or passages of the source.
Experiments:
[1] = tested on: Heliothis virescens; assay: Oral injection of fifth-instar larvae, pupal and adult development (non-irradiated compounds); assay type: in vivo; conditions: for Number Adults / Number Adults Deformed / Number Pupae / Unsuccessful Larvae-Pupae (number) / Unsuccessful Pupae-Adult (number) / Adults (%) / Adults Deformed (%) / Pupae (%) / Unsuccessful Larvae-Pupae (%) / Unsuccessful Pupae-Adult (%): 1.0 microgram injected orally; for Number Adults / Number Adults Deformed / Number Pupae / Unsuccessful Larvae-Pupae (number) / Unsuccessful Pupae-Adult (number): fifth-instar; for Number Adults / Number Adults Deformed / Number Pupae / Unsuccessful Larvae-Pupae (number) / Unsuccessful Pupae-Adult (number) / inhibition of pupation (in words): non-irradiated; for Adults (%) / Adults Deformed (%) / Pupae (%) / Unsuccessful Larvae-Pupae (%) / Unsuccessful Pupae-Adult (%): % of larvae; for inhibition of pupation (in words): 1.0 μg per os
Description: (§1) Individual larvae were injected per os on the first day of the fifth instar with 1.0 μg of either irradiated or non-irradiated compounds dissolved in 1.0 μl of 75% aqueous ethanol.
Table 2: Successful and unsuccessful pupal and adult development of
fifthinstar Heliothis Virescens larvae injected orally with 1.0 microgram
of either azadirachtin, 3deacetylazadirachtin, 22,23dihydroazadirachtin,
or 2',3',22,23tetrahydroazadirachtin.

[2] = UV stability in ethanol by reversed phase HPLC; assay type: physicochemical; conditions: for UV lability (in words): UV irradiation, HPLC
Description: Stability of Azadirachtin derivatives was determined as follows:
(§2) Azadirachtin, 3-deacetylazadirachtin, 22,23-dihydroazadirachtin, and 2',3',22,23-tetrahydroazadirachtin (1.0 mg/ml absolute ethanol) were placed individually in capped quartz NMR tubes (5×180 mm) and were irradiated with two UV germicidal lights (GE, G30T8, 200-280 nm, 30W) 1.8 m from the source at room temperature for up to 400 h. The controls were identical samples protected from exposure to UV radiation by wrapping with aluminum foil. At selected time intervals, aliquots from both the controls (non-irradiated) and irradiated samples were removed for high-performance liquid chromatography (HPLC) analysis and bioassay (vide infra).
Analytical reversed phase HPLC was performed on a phenyl (5μm) column run isocratically with acetonitrile-water (3:7) (Yamasaki et al.) Peaks were detected at 214 nm. The irradiated samples were compared with their corresponding non-UV-irradiated controls by measuring the height of the peak eluting at the appropriate Rt for each irradiated compound relative to each one's non-irradiated control. Results are expressed as the percent of the initial sample concentration remaining relative to the control. Each time point was done in at least triplicate fashion.

[3] = tested on: Heliothis virescens; assay: Relative activity of UV-irradiated compounds in inhibiting pupal development of fifth-instar larvae; assay type: in vivo; conditions: for Relative activity, inhibition of pupal development: relative to non-irradiated counterpart; for activity retained after 90 h of exposure to UV radiation (in words): 90 h UV
Description: as §2, §1
Table 3: Relative activity of azadirachtin, 3deacetylaza-dirachtin,
22,23dihydroazadirachtin, and 2',3',22,23tetrahydroazadirachtin, all of
which had been exposed for 15, 30, 90, 200, and 400 hours to UV radiation
inhibiting the pupal development of fifthinstar Heliothis virescens
(§3) larvae. Relative activity is defined as the percentage of larvae injected

[4] = tested on: Heliothis virescens; assay: Relative activity of UV-irradiated compounds in inhibiting adult development of fifth-instar larvae; assay type: in vivo; conditions: for Relative activity, inhibition of adult development: relative to non-irradiated counterpart; for ability to inhibit larvae from reaching the adult stage after UV (in words): 200 h UV
Description: as §2, §1
Table 4: Relative activity of azadirachtin, 3deacetylaza-dirachtin,
22,23dihydroazadirachtin, 2',3',22,23tetrahydroaza-dirachtin, all of whic
had been exposed for 15, 30, 90, 200, and 400 hours to UV radiation, in
inhibiting the adult development of fifthinstar Heliothis virescens
as §3
relative to the percentage injected with its nonirradiated counterpart

[5] = tested on: Heliothis virescens; assay: Artificial diet feeding bioassay, mortality and growth inhibition in first-instar larvae; assay type: in vivo, Heliothis virescens (tobacco budworm); conditions: for EC50 (concentration causing 50% growth inhibition): Table 1, first-instar Heliothis virescens larvae, artificial diet, parentheses = 95% confidence limits
Source text: The results of the growth inhibitory and lethal activities of azadirachtin and these 8 derivatives when fed in an artificial diet to Heliothis virescens larvae are shown in Table 1. Similar to the results of Morgan, E. D., in "Natural pesticides from the Neem tree (Azadirachta indica A. Juss), Schmutterer, H., et al., Eds., Proc. First International Neem Conference (Rottach-Egern, 1980), German Agency for Technical Corporation,Eschborn, Germany, 1982, pps. 43-52 (hereinafter "Morgan"), neither deacetylation nor hydrogenation of the carbon-carbon double bond of the dihydrofuran ring moiety of azadirachtin had any significant effect on activity of the compound against H. virescens.
Mortality and growth inhibition in first-instar Heliothis
virescens larvae fed azadirachtin and eight derivatives in an
artificial diet (I. Kubo and J. A. Klocke, In: Plant Resistance to
Insects (P. A. Helin, Ed.), ACS Symposium Series 208, American Chemical
Society, Washington, D.C. (1983), pp. 329-346.).^a
^b LC50 values are the concentrations (ppm) causing 50%
^c EC50 values are the concentrations (ppm) causing 50% growth
^d Numbers in parentheses are the 95% confidence limits determined
using the methods of Litchfield and Wilcoxon, J. Pharmacol. Exp. Ther.
An artificial diet feeding bioassay with neonate larvae of tobacco budworm (Heliothis virescens) and fall armyworm (Spodoptera frugiperda) was used as previously described (Kubo and Klocke, 1983) to detect insecticidal activities in the plant extracts to monitor fractionation, and to determine the potency of the isolated constituents and derivatives. Potency was determined either as the effective concentration (EC50) of added material that is necessary to reduce larval growth to 50% of the control values or as the lethal concentration (LC50) of added material that is necessary to kill 50% of the treated larvae. EC50 and LC50 values were determined from log probit paper and analyzed statistically by the method of Litchfield and Wilcoxon, supra.

[6] = tested on: insects; conditions: literature; cited from earlier work
[7] = tested on: insects; assay: Antifeedant / systemic action; conditions: in vivo
[8] = tested on: insect; conditions: Kubo & Klocke; cited from earlier work

C/C=C(\C)C(=O)OC1CC(OC(C)=O)C2(C(=O)OC)COC3C2C12COC(O)(C(=O)OC)C2C(C)(C12OC1(C)C1CC2OC2OCCC21O)C3O (stereo not shown) [22,23-dihydroazadirachtin]
Number Adults [1]: 6 Number | Number Adults Deformed [1]: 5 Number | Number Pupae [1]: 47 Number | Unsuccessful Larvae-Pupae (number) [1]: 13 Number | Unsuccessful Pupae-Adult (number) [1]: 4 Number | Adults (%) [1]: 3.4% | Adults Deformed (%) [1]: 2.8% | Pupae (%) [1]: 26.7% | Unsuccessful Larvae-Pupae (%) [1]: 7.4% | Unsuccessful Pupae-Adult (%) [1]: 2.3% | inhibition of pupation (in words) [1]: less effective | degradation following 400 h of exposure to UV radiation (in words) [2]: none of the three compounds remained in their original state | kinetics of UV degradation (in words) [2]: first-order reaction | UV lability (in words) [2]: UV-labile | Relative activity, inhibition of pupal development ([3]; 15 h UV exposure): 113.1% | Relative activity, inhibition of pupal development ([3]; 30 h UV exposure): 104.6% | activity retained after 90 h of exposure to UV radiation (in words) [3]: retained full activity | Relative activity, inhibition of pupal development ([3]; 90 h UV exposure): 100.0% | ability to inhibit pupation after UV (in words) ([3]; 200 h UV): did decline | Relative activity, inhibition of pupal development ([3]; 200 h UV exposure): 72.7% | ability to inhibit pupation after UV (in words) ([3]; 400 h UV): even greater decline | activity retained after 400 h of exposure to UV radiation ([3]; 400 h UV): approximately 50% | Relative activity, inhibition of pupal development ([3]; 400 h UV exposure): 49.1% | ability to inhibit pupation after UV (in words) ([3]; up to 90 h UV): not appreciably reduced | Relative activity, inhibition of adult development ([4]; 15 h UV exposure): 103.5% | Relative activity, inhibition of adult development ([4]; 30 h UV exposure): 100.1% | Relative activity, inhibition of adult development ([4]; 90 h UV exposure): 103.5% | ability to inhibit larvae from reaching the adult stage after UV (in words) [4]: more so | Relative activity, inhibition of adult development ([4]; 200 h UV exposure): 69.0% | Relative activity, inhibition of adult development ([4]; 400 h UV exposure): 74.5% | EC50 (concentration causing 50% growth inhibition) [5]: 0.08 (0.04-0.15) ppm

C/C=C(\C)C(=O)O[C@H]1C[C@@H](OC(C)=O)[C@@]2(C(=O)OC)CO[C@H]3[C@@H](O)[C@@](C)([C@]45O[C@@]4(C)[C@H]4C[C@@H]5O[C@@H]5OC=C[C@@]54O)[C@H]4[C@]1(CO[C@]4(O)C(=O)OC)[C@@H]32 [azadirachtin]
Number Adults [1]: 2 Number | Number Adults Deformed [1]: 1 Number | Number Pupae [1]: 10 Number | Unsuccessful Larvae-Pupae (number) [1]: 5 Number | Unsuccessful Pupae-Adult (number) [1]: 0 Number | Adults (%) [1]: 1.3% | Adults Deformed (%) [1]: 0.7% | Pupae (%) [1]: 6.7% | Unsuccessful Larvae-Pupae (%) [1]: 3.4% | Unsuccessful Pupae-Adult (%) [1]: 0% | mortality at 0.001 mg ([1]; Heliothis virescens, light or radiation study, po, read-out: % Mortality Prior to Adult Stage): 98.7% | inhibition of pupation (in words) [1]: equally effective | degraded after 90 h of exposure to UV radiation ([2]; 90 h UV): more than 80% | degradation following 400 h of exposure to UV radiation (in words) ([2]; 400 h UV): none of the three compounds remained in their original state | T1/2 of UV degradation ([2]; UV 200-280 nm, 1.0 mg/ml ethanol, room temperature): 25 h | UV lability (in words) [2]: UV-labile | kinetics of UV degradation (in words) ([2]; under the conditions used, data not shown): first-order reaction | Relative activity, inhibition of pupal development ([3]; 15 h UV exposure): 98.6% | Relative activity, inhibition of pupal development ([3]; 30 h UV exposure): 98.9% | activity retained after 90 h of exposure to UV radiation (in words) [3]: retained full activity | Relative activity, inhibition of pupal development ([3]; 90 h UV exposure): 85.7% | ability to inhibit pupation after UV (in words) ([3]; 200 h UV): did decline | Relative activity, inhibition of pupal development ([3]; 200 h UV exposure): 74.2% | ability to inhibit pupation after UV (in words) ([3]; 400 h UV): even greater decline | activity retained after 400 h of exposure to UV radiation ([3]; 400 h UV): approximately 50% | Relative activity, inhibition of pupal development ([3]; 400 h UV exposure): 60.0% | ability to inhibit pupation after UV (in words) ([3]; up to 90 h UV): not appreciably reduced | Relative activity, inhibition of adult development ([4]; 15 h UV exposure): 101.3% | Relative activity, inhibition of adult development ([4]; 30 h UV exposure): 101.3% | Relative activity, inhibition of adult development ([4]; 90 h UV exposure): 97.3% | ability to inhibit larvae from reaching the adult stage after UV (in words) [4]: declined sligtly | Relative activity, inhibition of adult development ([4]; 200 h UV exposure): 89.7% | Relative activity, inhibition of adult development ([4]; 400 h UV exposure): 81.1% | ecdysis inhibitory activity (in words) [6]: potent ecdysis inhibitory activity; also recorded: same ecdysis inhibitory activity | antifeedant function (in words) [7]: function as antifeedants | LC50 ([5]; Heliothis virescens, po, read-out: LC50 (concentration causing 50% mortality)): 0.8 µg/mL (≈ 1.11 µM) | EC50 (concentration causing 50% growth inhibition) [5]: 0.07 (0.05-0.10) ppm

C/C=C(\C)C(=O)O[C@@H]1C[C@H](O)[C@]23CO[C@H](C(=O)OC)[C@H]2[C@](C)([C@]24O[C@@]2(C)[C@H]2C[C@@H]4O[C@@H]4OC=C[C@@]42O)[C@H](O)[C@@H]2OC[C@@]1(C(=O)OC)[C@H]23 [deacetylazadirachtinol]
insect growth inhibitor activity, fold less active than azadirachtin [8]: about 2.5 fold | ecdysis inhibitory activity (in words) [6]: same ecdysis inhibitory activity
